Measured values reported in US6251898A, “Medical use of fluorenone derivatives for treating and preventing brain and spinal injury” (Questcor Pharmaceuticals, Inc., priority 1999, dated 2001).

Tested on: neuronal damage caused by global brain ischemia
Assay: Global cerebral ischemia, bilateral carotid occlusion model in gerbils
Assay type: in vivo, Mongolian gerbils
Description: The surgical and drug treatment procedures used in the animal model of global brain ischemia are described in Example 24. "Global" ischemia occurs when the entire brain is deprived of oxygenated blood, as occurs during crises such as cardiac arrest, suffocation, or carbon monoxide poisoning. It should be noted that the drug treatment was provided only after the ischemic insult had been fully completed (i.e., after the clamps which were used to temporarily close the carotid arteries had been released again). "Post-trauma" treatment offers a much more realistic, and much more difficult and stringent, challenge than other assays in which test animals are pre-treated with a test drug before an ischemic insult begins.
In one set of in vivo tests, the bilateral carotid occlusion model in gerbils was used to evaluate the abilities of a selected compound, GERI-E7, to protect against neuronal damage caused by global brain ischemia. These tests were performed in the laboratory of Dr. Claude Wasterlain, at the Sepulveda Veterans Administration Medical Center, in Los Angeles, Calif.
Adult male Mongolian gerbils were subjected to reversible bilateral carotid occlusion for 5 minutes, according to standard methods (e.g., Wasterlain et al 1992 and 1996). Each gerbil in a test group was then treated with a test compound at either 2 or 20 mg/kg, dissolved in injectable saline and administered intravenously (IV). Control animals were treated with saline. All treatment and control groups had 10 animals per group. Body temperature was maintained throughout the procedure by a heat lamp and rectal probe.
The gerbils were sacrificed 72 hours after surgery, and their brains were perfusion-fixed with paraformaldehyde. Serial sections of the brain were cut and stained with hematoxylin and eosin, and quantitative cell counts of live and dead neurons were made, using light and fluorescence microscopy, in two different parts of the brain that are highly sensitive to ischemic damage: (i) the subiculum, a zone of transition between the parahippocampus and the hippocampus; and (ii) the CA1 portion of the hippocampus. Statistical analysis was performed on all damage scores (non-paired student t test). All evaluations were made using double-blinded methods.

CCC[C@]12CCC(=O)C=C1c1c(cc(OCC3=NCCO3)c(Cl)c1Cl)C2 [GERI-E7, R(+)-2-[[(5,6-dichloro-2,3,9,9a-tetrahydro-3-oxo-9a-propyl-1H-fluoren-7-yl)-oxy]methyl]oxazoline]
Reduction of dead or dying neurons in the hippocampus (CA1 region of hippocampus, IV after 5 min occlusion, 72 h, 2 or 20 mg/kg, on average): about 40% | Reduction of brain damage caused by global brain ischemia (animal model used): very effective in reducing brain damage | Reduction in neuronal damage levels in other brain regions (mainly visual semi-quantitative methods): significant reduction in neuronal damage levels in most of the other areas | Reduction in neuronal damage in both brain regions evaluated (subiculum and CA1, versus saline control, student t test): substantial and statistically significant reduction in neuronal damage | Reduction of dead or dying neurons in the subiculum (subiculum, IV after 5 min occlusion, 72 h, 2 or 20 mg/kg, on average): about 30%
